The text below walks through data of patent publication US20250019374A1, “PROTEIN TYROSINE PHOSPHATASE INHIBITORS AND METHODS OF USE THEREOF” (Calico Life Sciences LLC, priority 2021, published 2025).

Assay [1] has as its target His tagged PTPN2 (TC45) protein (Homo sapiens (Human), UniProt P17706). In words: PTPN2 Mobility Shift Assay (MSA). The class given is biochemical. The settings on record: for Dihydrobenzofuran or Indoline x-fold>potency biochemical: x-fold versus corresponding chromane comparator, PTPN2 MSA. The procedure: Example III-1: Mobility Shift Assay (MSA) Used to Determine Potency of PTPN2 Inhibitors
Compound activity was determined using in house His tagged PTPN2 (TC45) protein (SEQ ID NO: 1) in an in vitro enzymatic reaction. The enzymatic assay used to determine activity was a mobility shift assay using a LabChip EZ Reader by Caliper Life Sciences. The enzymatic reaction was carried out in assay buffer (50 mM HEPES pH 7.5, 1 mM EGTA, 10 mM EDTA, 0.01% Tween® 20, and 2 mM DTT). The compounds were dispensed on a white 384 well ProxiPlate™ (PerkinElmer Catalog #6008289) plate using the Labcyte Echo at varying concentrations (12 point, 1:3 dilution). The enzyme (at 0.5 nM) was incubated with compound for 10 minutes at room temperature. Thereafter, the substrate (phosphorylated insulin receptor probe sequence: ((OG488)-(NH—CH2—CH2—O—CH2—CH2—O—CH2—CO)-T-R-D-I—(PY)-E-T-D-Y—Y—R—K—K—NH2) (SEQ ID NO: 2) was added at 2 μM to the plates and incubated for another 10 minutes at room temperature. Finally, a quench solution (water and 4-bromo-3-(2-oxo-2-propoxyethoxy)-5-(3-{[1-(phenylmethanesulfonyl)piperidin-4-yl]amino}phenyl)thiophene-2-carboxylic acid) was added to the plates, which were then run on the EZ Reader (excitation 488 nm, emission 530 nm) to measure % conversion (the amount of phosphorylated substrate which was de-phosphorylated by PTPN2). […] The % inhibition was then used to calculate the IC50 values.

Assay [2] addresses His tagged full-length PTPN1 protein (Homo sapiens (Human), UniProt P18031). As to the kind of experiment: PTPN1 Mobility Shift Assay (MSA). The class given is biochemical. The settings on record: enzyme 0.5 nM, substrate 2 μM. The procedure:
Example III-2: Mobility Shift Assay (MSA) Used to Determine Potency of PTPN1 Inhibitors
Compound activity was determined using in house His tagged full-length PTPN1 protein (SEQ ID NO: 3) in an in vitro enzymatic reaction. The enzymatic assay used to determine activity is a mobility shift assay using a LabChip EZ Reader by Caliper Life Sciences. The enzymatic reaction was carried out in assay buffer (50 mM HEPES pH 7.5, 1 mM EGTA, 10 mM EDTA, 0.01% Tween® 20, and 2 mM DTT). The compounds were dispensed on a white 384 well ProxiPlate™ (PerkinElmer Cat ^#6008289) plate using a Labcyte Echo® liquid handler at varying concentrations (12 point, 1:3 dilution). The enzyme (at 0.5 nM) was incubated with compound for 10 minutes at room temperature. Thereafter, the substrate (phosphorylated insulin receptor probe sequence: ((OG488)-(NH—CH2—CH2—O—CH2—CH2—O—CH2—CO)-T-R-D-I—(PY)-E-T-D-Y—Y—R—K—K—NH2) (SEQ ID NO: 2) was added at 2 μM to the plates and incubated for another 10 minutes at room temperature. Finally, a quench solution (water and 4-bromo-3-(2-oxo-2-propoxyethoxy)-5-(3-{[1-(phenylmethanesulfonyl)piperidin-4-yl]amino}phenyl)thiophene-2-carboxylic acid) was added to the plates, which were then run on the EZ Reader (excitation 488 nm, emission 530 nm) to measure % conversion (the amount of phosphorylated substrate which was de-phosphorylated by PTPN1). […] The % inhibition was then used to calculate the IC50 values.

The test system of assay [3] is IFNγ-induced STAT1 phosphorylation (pSTAT1) in B16F10 cells. As to the kind of experiment: B16F10 Phospho-STAT1 HTRF proximal pharmacodynamic (PD) assay. The settings on record: for EC50: B16-F10, B16F10 cells. It is filed as cell-based, murine. The procedure:
Example III-3: B16F10 (Murine Melanoma Cells) Phospho-STAT1 HTRF Proximal Pharmacodynamic (PD) Assay
B16F10 cells were grown and maintained in high glucose DMEM (Gibco, Catalog^#11965-092, Dun Laoghaire Co Dublin) supplemented with 10% fetal bovine serum (Gibco, Catalog^#10082-139, Dun Laoghaire Co Dublin). The cells were pelleted and resuspended in high glucose DMEM without phenol red (Gibco, Catalog^#11054-020, Dun Laoghaire Co Dublin), supplemented with 10% fetal bovine serum and plated in a 384 well Corning plate (product^#3765, Corning, NY) at 11,000 cells per well in a volume of 20 μL. The cells were dosed with the compounds of interest using an Echo Liquid Handler (Beckman Coulter, Brea, CA) at 50 μM top dose with 3-fold dilutions down to 0.002679 μM for a 10-point dose response. The plate was incubated for 3 hours at 37° C. and subsequently treated with recombinant mouse IFNγ (R&D Systems, Catalog^#485-MI, Minneapolis, MN; 100 nM final concentration) for 10 minutes at 37° C. to induce STAT1 phosphorylation followed by 3.3 μM staurosporine treatment for 1 hour at 37° C. to terminate phosphorylation. Media was then aspirated and 20 μL of 1× lysis buffer/blocking reagent (Cisbio Phospho-STAT1 kit, part^# 63ADK026PEH, Bedford, MA) was added. The plate was placed on a plate shaker for 30 minutes at room temperature, sealed, and stored at −80° C. until needed. To thaw, the plate was placed on shaker at room temperature until completely thawed while the antibody master mix was made (1:40 Phospho-STAT1 Eu Cryptate antibody, 1:40 Phospho-STAT d2 antibody, with the detection buffer; Cisbio Phospho-STAT1 kit, part^#63ADK026PEH, Bedford, MA). The antibody master mix was then dispensed at 4 μL per well into a 384 ProxiPlate Plus (PerkinElmer, part^#6008289, Waltham, MA) and 16 μL of lysate was added from the Corning plate to the Proxiplate using a VIAFLO 384 (INTEGRA). The plate was incubated for 3 hours at room temperature and read on an EnVision® (Perkin Elmer) plate reader with laser excitation at 335 nm and emission at 665 nm. Dotmatics Studies (Bishop's Stortford, UK) was utilized to generate all dose-response curves and calculate EC50s and are shown in Table 2.
(In TR-FRET formats the signal depends on donor and acceptor labels being close together.)

Setting [4] is: Table 3, dihydrobenzofuran or indoline compound (X = O or NH).
[5] abbreviates: 3 hours compound, 100 nM mouse IFNγ 10 minutes, read-out: B16F10 IFNγ Induced pSTAT1 EC50.

Read-outs that look alike come from different tables or passages of the source. A value given as a limit tells only on which side of the number the result lay.

Usually IC50 stands for the midpoint of a concentration-inhibition curve. Usually EC50 stands for the concentration needed to bring the measured effect to its halfway point.

Chain of His tagged full-length PTPN1 protein (P18031 whole entry): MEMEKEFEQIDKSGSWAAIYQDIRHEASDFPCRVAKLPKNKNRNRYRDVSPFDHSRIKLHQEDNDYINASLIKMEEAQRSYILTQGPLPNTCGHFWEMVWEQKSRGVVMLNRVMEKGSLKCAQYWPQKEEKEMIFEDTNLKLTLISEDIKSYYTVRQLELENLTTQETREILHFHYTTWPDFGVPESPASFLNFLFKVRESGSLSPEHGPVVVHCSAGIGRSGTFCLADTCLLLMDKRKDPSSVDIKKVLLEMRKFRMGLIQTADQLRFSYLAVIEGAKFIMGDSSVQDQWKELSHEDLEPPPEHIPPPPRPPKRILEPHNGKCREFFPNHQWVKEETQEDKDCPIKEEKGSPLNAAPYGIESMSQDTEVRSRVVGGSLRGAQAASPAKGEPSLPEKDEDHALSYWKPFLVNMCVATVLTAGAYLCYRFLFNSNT
Chain of His tagged PTPN2 (TC45) protein (P17706 other isoform, or with tags, fused parts or gaps): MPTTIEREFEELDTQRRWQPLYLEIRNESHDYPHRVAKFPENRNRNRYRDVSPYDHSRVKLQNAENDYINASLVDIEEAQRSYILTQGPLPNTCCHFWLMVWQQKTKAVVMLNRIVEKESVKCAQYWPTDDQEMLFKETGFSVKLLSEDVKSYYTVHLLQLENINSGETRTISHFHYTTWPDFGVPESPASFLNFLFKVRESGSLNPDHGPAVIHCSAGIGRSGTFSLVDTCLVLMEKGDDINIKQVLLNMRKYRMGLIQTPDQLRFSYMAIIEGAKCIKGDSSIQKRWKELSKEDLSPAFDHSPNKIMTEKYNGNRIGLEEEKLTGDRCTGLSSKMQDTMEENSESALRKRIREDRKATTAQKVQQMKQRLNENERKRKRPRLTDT

Turning to `O=C1CN(c2c(O)cc3c(c2F)C[C@H](CNCC2C4CCCC42)O3)S(=O)(=O)N1` (mixture of isomers) [Compound 126, 5-{(2R)-2-[({[(1RS,5SR)-bicyclo[3.1.0]hexan-6-yl]methyl}amino)methyl]-4-fluoro-6-hydroxy-2,3-dihydro-1-benzofuran-5-yl}-1λ^6,2,5-thiadiazolidine-1,1,3-trione], the IC50 in assay [1] (setting [4]) is 6.06 nM; in assay [1] (enzyme 0.5 nM, substrate 2 μM), under 10 nM; in assay [2], 10 to 100 nM. Besides, the “Dihydrobenzofuran or Indoline x-fold>potency biochemical” value in assay [1] came out at 5.3. Moreover, the concentration for a half-maximal effect (EC50) was 3670 nM in assay [3] (setting [5]) and 3670 nM in assay [3] (Mus musculus, Table 3, dihydrobenzofuran or indoline compound (X = O or NH), read-out: pSTAT1 EC50). For the same compound, in assay [3] (x-fold versus corresponding chromane comparator, B16F10 pSTAT1), the “Dihydrobenzofuran or Indoline x-fold>potency cellular” value was over 13.6.

Regarding `CC(C)CNC[C@H]1Cc2c(cc(O)c(N3CC(=O)NS3(=O)=O)c2F)O1` [Compound 100, 5-[(2R)-4-fluoro-6-hydroxy-2-{[(2-methylpropyl)amino]methyl}-2,3-dihydro-1-benzofuran-5-yl]-1λ^6,2,5-thiadiazolidine-1,1,3-trione], the IC50 in assay [1] (enzyme 0.5 nM, substrate 2 μM) is under 10 nM; in assay [2], 10 to 100 nM. Besides, in assay [3] (setting [5]), the EC50 was determined as 853 nM.

As for `CC(C)CNC[C@@H]1Cc2c(cc(O)c(N3CC(=O)NS3(=O)=O)c2F)O1` [Compound 101, 5-[(2S)-4-fluoro-6-hydroxy-2-{[(2-methylpropyl)amino]methyl}-2,3-dihydro-1-benzofuran-5-yl]-1λ^6,2,5-thiadiazolidine-1,1,3-trione], the 50% inhibitory concentration (IC50) in assay [1] (enzyme 0.5 nM, substrate 2 μM) is over 100 nM; in assay [2], over 100 nM.

As to `CC(C)CNCC1Cc2c(cc(O)c(N3CC(=O)NS3(=O)=O)c2F)O1` (stereo not drawn) [Compound 102, 5-(4-fluoro-6-hydroxy-2-{[(2-methylpropyl)amino]methyl}-2,3-dihydro-1-benzofuran-5-yl)-1λ^6,2,5-thiadiazolidine-1,1,3-trione], the concentration for half-maximal inhibition (IC50) in assay [1] (enzyme 0.5 nM, substrate 2 μM) fell in the range of 10 to 100 nM; in assay [2], 10 to 100 nM. In assay [3] (setting [5]), the EC50 stood at 3420 nM.

As for `O=C1CN(c2c(O)cc3c(c2F)C[C@H](CNCCC2CCCC2)O3)S(=O)(=O)N1` [Compound 103, 5-[(2R)-2-{[(2-cyclopentylethyl)amino]methyl}-4-fluoro-6-hydroxy-2,3-dihydro-1-benzofuran-5-yl]-1λ^6,2,5-thiadiazolidine-1,1,3-trione], the 50% inhibitory concentration (IC50) in assay [1] (enzyme 0.5 nM, substrate 2 μM) is under 10 nM; in assay [2] it was 10 to 100 nM. In assay [3] (setting [5]), the concentration giving a half-maximal response (EC50) is 1870 nM.

As to `CC(C)(CO)CCNC[C@H]1Cc2c(cc(O)c(N3CC(=O)NS3(=O)=O)c2F)O1` [Compound 104, 5-[(2R)-4-fluoro-6-hydroxy-2-{[(4-hydroxy-3,3-dimethylbutyl)amino]methyl}-2,3-dihydro-1-benzofuran-5-yl]-1λ^6,2,5-thiadiazolidine-1,1,3-trione], the concentration for half-maximal inhibition (IC50) was 10 to 100 nM in assay [1] (enzyme 0.5 nM, substrate 2 μM) and 10 to 100 nM in assay [2]. Besides, the EC50 in assay [3] (setting [5]) worked out at 5110 nM.

In the case of `CC(C)(O)CCNC[C@H]1Cc2c(cc(O)c(N3CC(=O)NS3(=O)=O)c2F)O1` [Compound 105, 5-[(2R)-4-fluoro-6-hydroxy-2-{[(3-hydroxy-3-methylbutyl)amino]methyl}-2,3-dihydro-1-benzofuran-5-yl]-1λ^6,2,5-thiadiazolidine-1,1,3-trione], the half-maximal inhibitory concentration (IC50) in assay [1] (enzyme 0.5 nM, substrate 2 μM) lay in the range of 10 to 100 nM; in assay [2], 10 to 100 nM. The EC50 in assay [3] (setting [5]) turned out to be 2950 nM.

Consider `O=C1CN(c2c(O)cc3c(c2F)C[C@H](CNCCC2CC(F)(F)C2)O3)S(=O)(=O)N1` [Compound 106, 5-[(2R)-2-({[2-(3,3-difluorocyclobutyl)ethyl]amino}methyl)-4-fluoro-6-hydroxy-2,3-dihydro-1-benzofuran-5-yl]-1λ^6,2,5-thiadiazolidine-1,1,3-trione], for which the 50% inhibitory concentration (IC50) in assay [1] (enzyme 0.5 nM, substrate 2 μM) is under 10 nM; in assay [2] it was 10 to 100 nM. Further, the concentration for a half-maximal effect (EC50) in assay [3] (setting [5]) was 1860 nM.

For the compound `O=C1CN(c2c(O)cc3c(c2F)C[C@H](CNCCCOCC(F)F)O3)S(=O)(=O)N1` [Compound 123, 5-[(2R)-2-({[3-(2,2-difluoroethoxy)propyl]amino}methyl)-4-fluoro-6-hydroxy-2,3-dihydro-1-benzofuran-5-yl]-1λ^6,2,5-thiadiazolidine-1,1,3-trione], the concentration for half-maximal inhibition (IC50) in assay [1] (setting [4]) was 11.2 nM; in assay [1] (enzyme 0.5 nM, substrate 2 μM), 10 to 100 nM; in assay [2], 10 to 100 nM. Besides, the “Dihydrobenzofuran or Indoline x-fold>potency biochemical” value in assay [1] is recorded as 2.1.

For the compound `CC(C)(C)OC(=O)N1CCC(CNC[C@H]2Cc3c(cc(O)c(N4CC(=O)NS4(=O)=O)c3F)O2)CC1` [Compound 124, tert-butyl 4-[({[(2R)-4-fluoro-6-hydroxy-5-(1,1,4-trioxo-1λ^6,2,5-thiadiazolidin-2-yl)-2,3-dihydro-1-benzofuran-2-yl]methyl}amino)methyl]piperidine-1-carboxylate], the concentration for half-maximal inhibition (IC50) in assay [1] (setting [4]) is 13.2 nM; in assay [1] (enzyme 0.5 nM, substrate 2 μM), 10 to 100 nM; in assay [2] it was 10 to 100 nM. For the same compound, the “Dihydrobenzofuran or Indoline x-fold>potency biochemical” value in assay [1] amounted to 1.1.

As to `CC(C)CNC[C@H]1Cc2c(cc(O)c(N3CC(=O)NS3(=O)=O)c2F)N1C` [Compound 156, 5-[(2R)-4-fluoro-6-hydroxy-1-methyl-2-{[(2-methylpropyl)amino]methyl}-2,3-dihydro-1H-indol-5-yl]-1λ^6,2,5-thiadiazolidine-1,1,3-trione], the IC50 is over 100 nM in assay [1] (enzyme 0.5 nM, substrate 2 μM) and over 100 nM in assay [2].

Take `O=C1CN(c2c(O)cc3c(c2F)C[C@H](CNCC(O)C(F)F)N3)S(=O)(=O)N1` (stereo partly drawn) [Compound 157, 5-[(2R)-2-{[(3,3-difluoro-2-hydroxypropyl)amino]methyl}-4-fluoro-6-hydroxy-2,3-dihydro-1H-indol-5-yl]-1λ^6,2,5-thiadiazolidine-1,1,3-trione]: the IC50 in assay [1] (enzyme 0.5 nM, substrate 2 μM) was over 100 nM; in assay [2] it was over 100 nM.
